Reference: ChEMBL document CHEMBL1201862, “PubChem BioAssay data set” (2004)
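Briefly, cells in 96-well plates were exposed to five compound concentrations for 48 h, and endpoints were estimated by linear interpolation. At the GI50, growth is halved.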 Calls of active or inactive are those of the source. No stated cut-off is given here; in the data, active = GI50 up to about 1.1 µM and inactive = higher.

Legend:
Assay in all cases: NCI tumour cell line growth inhibition, 48 h
SNB-75 = tested on: SNB-75
BT-549 = tested on: BT-549
SF-268 = tested on: SF-268
LOX IMVI = tested on: LOX IMVI
DU-145 = tested on: DU-145
MCF7 = tested on: MCF7
HL-60 = tested on: HL-60
M19-MEL = tested on: M19-MEL
A498 = tested on: A498
HCT-15 = tested on: HCT-15
HOP-18 = tested on: HOP-18
SR = tested on: SR
786-0 = tested on: 786-0
EKVX = tested on: EKVX
OVCAR-4 = tested on: OVCAR-4
UACC-62 = tested on: UACC-62
DMS-273 = tested on: DMS-273
MOLT-4 = tested on: MOLT-4
M14 = tested on: M14
SK-MEL-2 = tested on: SK-MEL-2

CCOC(=O)c1c(CN2CCNCC2)nc2ccc(Cl)cc2c1-c1ccccc1
GI50 (SNB-75): 2370 nM (inactive)
GI50 (BT-549): 13100 nM (inactive)
GI50 (SF-268): 5600 nM (inactive)
GI50 (LOX IMVI): 1850 nM (inactive)
GI50 (DU-145): 16200 nM (inactive)
GI50 (MCF7): 11000 nM (inactive)
GI50 (HL-60): 1980 nM (inactive)
GI50 (M19-MEL): 1900 nM (inactive)
GI50 (A498): 7260 nM (inactive)
GI50 (HCT-15): 3910 nM
GI50 (HOP-18): 1790 nM (inactive)
GI50 (SR): 1780 nM (inactive)
GI50 (786-0): 1650 nM (inactive)
GI50 (EKVX): 9380 nM (inactive)
GI50 (OVCAR-4): 3720 nM (inactive)
GI50 (UACC-62): 1770 nM (inactive)
GI50 (DMS-273): 2320 nM (inactive)
GI50 (MOLT-4): 1860 nM (inactive)
GI50 (M14): 1810 nM (inactive)
GI50 (SK-MEL-2): 1790 nM (inactive)
